Values quoted from earlier work as cited in patent publication US20090226465A1, “MACROCYCLIC DEPSIPEPTIDE ANTIBODY-DRUG CONJUGATES AND METHODS” (priority 2005, published 2009).
pIC50: −log10 of the molar value. *1 amine or outer side, *2 acyl side, *3 side chain or, on linkers, in order; H or OH if unused. Where a SMILES comes first, the peptide text is derived from it. Bridges are numbered along the chain shown (N, C = ends). [ ]: non-standard residue; d: D form. The star is where a group is joined. X1 = CC[C@H](C)[C@@H](N[*:1])[C@@H](O)CC(=O)O[C@H](C(=O)[C@H](C)C(=O)[*:2])C(C)C; NMeY = CN[C@@H](Cc1ccc(O)cc1)C(=O)O; dNMeL = CN[C@H](CC(C)C)C(=O)O; Pyruvoyl = CC(=O)C(=O)*

Tests used:
[1] = system: panel of solid tumor cell lines; settings: read-out: in vitro IC50

Compound: CC[C@H](C)[C@H]1NC(=O)[C@@H](NC(=O)[C@@H](CC(C)C)N(C)C(=O)[C@@H]2CCCN2C(=O)C(C)=O)[C@@H](C)OC(=O)[C@H](Cc2ccc(OC)cc2)N(C)C(=O)[C@@H]2CCCN2C(=O)[C@H](CC(C)C)NC(=O)[C@@H](C)C(=O)[C@H](C(C)C)OC(=O)C[C@@H]1O [Aplidin] (Pyruvoyl-P[dNMeL]T[X1]LP[NMeY](Me); ester 3-C)
- pIC50 [1]: 7.00 to 9.00
- half life in plasma: 4 to 7 h
